Data published in ChEMBL document CHEMBL3352576, “Synthesis and antitumor activities of novel hybrid molecules containing 1,3,4-oxadiazole and 1,3,4-thiadiazole bearing Schiff base moiety” (Bioorg Med Chem Lett, 2014).

Tests used:
Assay type in all cases: functional, cell-based
MCF7 = experiment: Antiproliferative activity against human MCF7 cells assessed as inhibition of cell proliferation by CCK8 assay
A549 = experiment: Antiproliferative activity against human A549 cells assessed as inhibition of cell proliferation by CCK8 assay
[1] = Antiproliferative activity against human SMMC7721 cells assessed as inhibition of cell proliferation by CCK8 assay; conditions: SMMC-7721

SMILES | IC50 (MCF7) [µM] | IC50 (A549) [µM] | IC50 [1] [µM]
COc1cc(-c2nnc(CSc3nnc(/N=C/c4ccccc4O)s3)o2)cc(OC)c1OC | 7.95 | 6.55 | 7.6
COc1cccc(-c2nnc(CSc3nnc(/N=C/c4ccccc4O)s3)o2)c1 | 22 | 8.82 | 4.34
COc1ccc(-c2nnc(CSc3nnc(/N=C/c4ccccc4O)s3)o2)cc1 | 4.56 | 20.3 | 10
O=c1[nH]cc(F)c(=O)[nH]1 [FLUOROURACIL] |  | 8.13 | 5.62
Oc1ccccc1/C=N/c1nnc(SCc2nnc(-c3ccccc3Cl)o2)s1 | 18.1 | 18.1 | 31.8
Cc1ccc(-c2nnc(CSc3nnc(/N=C/c4ccccc4O)s3)o2)cc1 | 8.75 | 22 | 37.1
O=[N+]([O-])c1cccc(-c2nnc(CSc3nnc(/N=C/c4ccccc4O)s3)o2)c1 | 13.9 | 36.9 | 15.7
Oc1ccccc1/C=N/c1nnc(SCc2nnc(-c3ccccc3Br)o2)s1 | 9.14 | 7.15 | 6.78
Cc1cccc(-c2nnc(CSc3nnc(/N=C/c4ccccc4O)s3)o2)c1 | 11.6 | 24.3 | 4.55
Oc1ccccc1/C=N/c1nnc(SCc2nnc(-c3ccccc3)o2)s1 | 9.76 | 4.11 | 7.1
Oc1ccccc1/C=N/c1nnc(SCc2nnc(-c3ccc(F)cc3)o2)s1 | 15.6 | 20.1 | 13.1
O=[N+]([O-])c1ccc(-c2nnc(CSc3nnc(/N=C/c4ccccc4O)s3)o2)cc1 | 4.25 | 4.13 | 16.9
Oc1ccccc1/C=N/c1nnc(SCc2nnc(-c3ccc(Cl)cc3)o2)s1 | 7.55 | 30.1 | 2.84
Oc1ccccc1/C=N/c1nnc(SCc2nnc(-c3ccc(Br)cc3)o2)s1 | 8.32 | 20 | 18
Cc1ccccc1-c1nnc(CSc2nnc(/N=C/c3ccccc3O)s2)o1 | 9.36 | 7.85 | 15.5
